Read-outs that look alike come from different tables or passages of the source. Numbered stars: 1 amine (or outer) side, 2 acyl side, 3 side chain; on linkers, the order of the positions; unused ones are H or OH. Ends that are not written are not given here. Peptide text beside a SMILES is read from it. * marks the point of attachment. X1 = O=C(CCCC[C@@H]1SC[C@@H]2NC(=O)N[C@@H]21)NCCCOCCOCCOCCCN*; Suc = O=C(CCC(=O)[*:2])[*:1]
How the values were obtained:
[1] = biological target: MAGI2_2 PDZ (Homo sapiens, UniProt Q86UL8); assay: Competitive fluorescence polarization (FP) assay; type: binding; settings: read-out: pKd FP (converted)
[2] = biological target: DLG4_3 PDZ (Homo sapiens, UniProt P78352); assay: Competitive fluorescence polarization (FP) assay; type: binding; settings: read-out: pKd FP (converted)
[3] = biological target: SCRIB_1 PDZ (Homo sapiens, UniProt Q14160); assay: Holdup assay; type: binding
[4] = biological target: DLG1_1 PDZ (Homo sapiens, UniProt Q12959); assay: Holdup assay; type: binding
[5] = biological target: DLG1_2 PDZ (Homo sapiens, UniProt Q12959); assay: Holdup assay; type: binding
[6] = biological target: T1, SCRIB2 PDZ (Homo sapiens, UniProt Q14160); assay: Holdup assay; type: binding
T1 sequence (Q14160 862-950 limits assumed): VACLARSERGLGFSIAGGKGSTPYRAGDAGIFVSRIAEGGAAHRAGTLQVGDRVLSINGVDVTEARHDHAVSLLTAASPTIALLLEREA

[7] = biological target: SNX27 PDZ (Homo sapiens, UniProt Q96L92); assay: Holdup assay; type: binding
[8] = biological target: T2, TX1BP3 PDZ (Homo sapiens, UniProt O14907); assay: Holdup assay; type: binding
T2 sequence (O14907 15-112 limits assumed): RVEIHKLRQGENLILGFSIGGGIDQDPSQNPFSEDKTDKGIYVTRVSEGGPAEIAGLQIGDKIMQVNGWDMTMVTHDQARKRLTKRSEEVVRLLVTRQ

[9] = tested on: HaCat cell extract preys; assay: PDZ-AP-MS, biotinylated MBP-PDZ baits; type: binding, human; settings: for Difference log2: enrichment of prey
Method: (§1) For PDZ-AP-MS experiments, PDZ domains were cloned as His6-AviTag-MBP-PDZ constructs. For co-expression with BirA, E. coli BL21(DE3) cells were co-transformed with His6-AviTag-MBP, or His6-AviTag-MBP-PDZ-coding and PET21a-BirA (Addgene #20857) plasmids. Simultaneously to IPTG induction, 50 µM biotin was added to the media. After cell harvesting, the lysis buffer was also supplemented with 50 µM biotin. Otherwise, expression and double affinity purification was identical as previously described in details.
(§2) For PBM-AP-MS experiments, 30 μl streptavidin resin was mixed with biotin or peptide at 50–60 μM concentration in 6–6.5 resin volume for 60 min to achieve resin saturation. For PDZ-AP-MS experiments, 30 μl streptavidin resin was mixed with biotinylated MBP or MBP-PDZ at 40-50 μM concentration in >1000× resin volume for 60 min to achieve resin saturation. After saturation, resins were washed a single time (ten resin volume, holdup buffer), and were depleted with biotin (1 mM biotin, 5–10 resin volume, 10 min). Finally, resins were washed two times. 0.5 ml 2 mg/ml cell lysate was added to the dry resin (1 mg total input) and were incubated at 4 °C for 2 h. Then, the beads were washed three times with 10 resin volume buffer containing: 50 mM TRIS pH 8.5, 150 mM NaCl, 1% TritonX-100, 10× complete EDTA-free protease inhibitor cocktail, 2 mM EDTA, 1 mM TCEP. Then, the beads were washed two times with ten resin volume buffer containing: 50 mM TRIS pH 8.5, 150 mM NaCl, 1 mM TCEP. Finally, captured protein was eluted from the resin in two steps and the eluted fractions were pooled. For each elution the beads were incubated for 30 min with three resin volume buffer containing: 20 mM TRIS pH8.5, 100 mM NaCl, 500 μM TCEP, 8 M Urea. Between each step, the beads were separated by mild centrifugation and the supernatant was removed by gentle pipetting.
(§3) The samples were precipitated with TCA 20% overnight at 4 °C and centrifuged at 14,000 rpm for 10 min at 4 °C. The protein pellets were washed twice with 1 mL cold acetone and air dried. The protein extracts were solubilized in urea 8 M, reduced with 5 mM TCEP for 30 min, and alkylated with 10 mM iodoacetamide for 30 min in the dark. Double digestion was performed at 37 °C with 500 ng endoproteinase Lys-C for 4 h, followed by fourfold dilution and an overnight digestion with 500 ng trypsin. Peptide mixtures were then desalted on C18 spin-column and dried on Speed-Vacuum.
(§4) Samples were analyzed using an Ultimate 3000 nano-RSLC (Thermo Scientific, San Jose California) coupled in line with a LTQ-Orbitrap ELITE mass spectrometer via a nano-electrospray ionization source (Thermo Scientific, San Jose California). Peptide mixtures were injected in 0.1% TFA on a C18 Acclaim PepMap100 trap-column (75 µm ID × 2 cm, 3 µm, 100 Å, Thermo Fisher Scientific) for 3 min at 5 µL/min with 2% ACN, 0.1% FA in H2O and then separated on a C18 Accucore nano-column (75 µm ID × 50 cm, 2.6 µm, 150 Å, Thermo Fisher Scientific) at 220 nl/min and 38 °C with a 90 min linear gradient from 5% to 30% buffer B (A: 0.1% FA in H2O/B: 99% ACN, 0.1% FA in H2O), regeneration at 5% B. The mass spectrometer was operated in positive ionization mode, in data-dependent mode with survey scans from m/z 350–1500 acquired in the Orbitrap at a resolution of 120,000 at m/z 400. The 20 most intense peaks from survey scans were selected for further fragmentation in the Linear Ion Trap with an isolation window of 2.0 Da and were fragmented by CID with normalized collision energy of 35%. (TOP20CID method) Unassigned and single charged states were excluded from fragmentation. The Ion Target Value for the survey scans (in the Orbitrap) and the MS2 mode (in the Linear Ion Trap) were set to 1E6 and 5E3 respectively and the maximum injection time was set to 100 ms for both scan modes. Dynamic exclusion was set to 20 s after one repeat count with mass width at ±10 ppm. […]

[10] = tested on: HeLa cell extract preys; assay: PDZ-AP-MS, biotinylated MBP-PDZ baits; type: binding, human; settings: for Ratio: fold enrichment of prey; for Difference: log2 enrichment of prey
Method: as §1, §2, §3, §4

[11] = biological target: T3, SYNJ2BP PDZ (Homo sapiens, UniProt P57105); assay: Holdup assay; type: binding
T3 sequence (P57105 13-100 limits assumed): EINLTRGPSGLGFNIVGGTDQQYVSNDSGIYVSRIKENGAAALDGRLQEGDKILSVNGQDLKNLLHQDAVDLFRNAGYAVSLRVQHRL

[12] = tested on: Jurkat cell extract preys; assay: PDZ-AP-MS, biotinylated MBP-PDZ baits; type: binding, human; settings: for Difference log2: enrichment of prey
Method: as §1, §2, §3, §4

[13] = PBM motif of the named protein vs SCRIB_1 PDZ, read-out: pKd values – domain-motif, SCRIB_1 (converted)
[14] = PBM motif of the named protein vs DLG1_1 PDZ, read-out: pKd values – domain-motif, DLG1_1 (converted)
[15] = PBM motif of the named protein vs DLG1_2 PDZ, read-out: pKd values – domain-motif, DLG1_2 (converted)
[16] = PBM motif of the named protein vs SCRIB_2 PDZ, read-out: pKd values – domain-motif, SCRIB_2 (converted)
[17] = PBM motif of the named protein vs TX1BP3 PDZ, read-out: pKd values – domain-motif, TX1BP3 (converted)
[18] = bait SCRIB_2 PDZ, fold change of prey
[19] = holdup affinity of the PBM peptide of the named protein, sheet PBMcomplexome, lower sub-table, 3.5 appears to be the floor for no detectable binding, read-out: affinity of PBM to DLG1_2 (pKd) (converted)
[20] = holdup affinity of the PBM peptide of the named protein, sheet PBMcomplexome, lower sub-table
[21] = holdup affinity of the PBM peptide of the named protein, sheet PBMcomplexome, lower sub-table, 3.5 appears to be the floor for no detectable binding, read-out: affinity of PBM to TX1BP3 (pKd) (converted)
[22] = bait SCRIB_1 PDZ, fold change of prey

SCRIB_1 PDZ, sequence (Q14160 728-815 limits assumed): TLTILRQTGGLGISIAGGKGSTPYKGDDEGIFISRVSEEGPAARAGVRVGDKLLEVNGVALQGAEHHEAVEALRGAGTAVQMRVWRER
DLG4_3 PDZ, sequence (P78352 313-393 limits assumed): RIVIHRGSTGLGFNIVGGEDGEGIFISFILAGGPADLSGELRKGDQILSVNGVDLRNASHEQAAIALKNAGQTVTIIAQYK
MAGI2_2 PDZ, sequence (Q86UL8 426-510 limits assumed): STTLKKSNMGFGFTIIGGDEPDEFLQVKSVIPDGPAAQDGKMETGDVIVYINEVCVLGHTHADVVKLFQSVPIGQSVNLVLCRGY

CC(C)C[C@H](NC(=O)[C@H](CCC(N)=O)NC(=O)[C@@H](NC(=O)[C@H](CCC(=O)O)NC(=O)[C@H](CCC(=O)O)NC(=O)[C@H](CCCNC(=N)N)NC(=O)[C@H](CO)NC(=O)[C@H](CC(=O)O)NC(=O)[C@H](CCC(N)=O)NC(=O)CNC(=O)CCC(=O)NCCCOCCOCCOCCCNC(=O)CCCC[C@@H]1SC[C@@H]2NC(=O)N[C@@H]21)[C@@H](C)O)C(=O)O [KCNT2] ({X1-Suc}-GQDSREETQL-OH) showed a Kd [1] of 248 µM and a Kd [2] of 241 µM.
In the case of ATKDKKITTV [EXOC4], the Kd [3, 13] is reported as 141 µM, the Kd [4, 14] is reported as 8.91 µM and the Kd [5, 15] is reported as 1.23 µM. The Kd [6, 16] was 324 µM, the Kd [7] was 41.7 µM and the Kd [8, 17] was 123 µM.
For EKQAKGDTEF [CACYBP], the Kd [7] was 209 µM.
EPRS1 was tested, and the “Difference log2” value ([9]; bait SCRIB_2 PDZ vs MBP) was 4.198 and the “Ratio SCRIB_2/MBP” value [9, 18] was 18.3552.
For GFGEERESIL [KIDINS220], the Kd [5, 19] was 132 µM, the Kd [7, 20] was 2.57 µM and the Kd [8, 21] was 186 µM.
IDNDTESTAL [ARHGAP17] showed a Kd [3, 13] of 12.3 µM, a Kd [6, 16] of 245 µM and a Kd [7] of 10.7 µM.
With IQREDQETAV [DGKZ] the Kd ([3]; holdup affinity of the PBM peptide of the named protein, sheet PBMcomplexome, lower sub-table, 3.5 appears to be the floor for no detectable binding, read-out: affinity of PBM to SCRIB_1 (pKd) (converted)) was 19.5 µM, the Kd ([4]; holdup affinity of the PBM peptide of the named protein, sheet PBMcomplexome, lower sub-table, 3.5 appears to be the floor for no detectable binding, read-out: affinity of PBM to DLG1_1 (pKd) (converted)) was 18.6 µM and the Kd [5, 19] was 6.92 µM. The Kd ([6]; holdup affinity of the PBM peptide of the named protein, sheet PBMcomplexome, lower sub-table, 3.5 appears to be the floor for no detectable binding, read-out: affinity of PBM to SCRIB_2 (pKd) (converted)) was 13.8 µM, the Kd [7, 20] was 1 µM and the Kd [8, 21] was 66.1 µM.
With KKYVDAETSL [SLC4A7] the Kd [3, 13] was 2.88 µM, the Kd [5, 15] was 275 µM and the Kd [6, 16] was 170 µM. For the same compound, the Kd [7] was 1.95 µM and the Kd [8, 17] was 151 µM.
With LSEFKAMDSI [CTNNA1] the Kd [8, 17] was 339 µM.
With PLEC the Ratio ([10]; bait TX1BP3 PDZ vs MBP control) was 24.4238 and the Difference ([10]; bait TX1BP3 PDZ vs MBP control) was 4.61.
QPRTWLQSPV [RTKN] gave a Kd [3, 13] of 204 µM, a Kd [4, 14] of 182 µM and a Kd [5, 15] of 50.1 µM. For the same compound, the Kd [7] was 49 µM and the Kd [8, 17] was 0.891 µM.
QRQARSETLV [HPV59E6] showed a Kd [11] of 15.4 µM.
For SCRIB, the “Difference log2” value ([9]; bait SCRIB_1 PDZ vs MBP) was 13.0145, the “Ratio SCRIB_1/MBP” value [9, 22] was 8274.77 and the “Difference log2” value ([12]; bait SCRIB_1 PDZ vs MBP) was 8.3787. The “Ratio SCRIB_1/MBP” value [12, 22] was 332.843, the “Difference log2” value ([12]; bait SCRIB_2 PDZ vs MBP) was 8.333 and the “Ratio SCRIB_2/MBP” value [12, 18] was 322.542. For the same compound, the Difference ([10]; bait SCRIB_2 PDZ (biotinylated MBP-PDZ) vs MBP control) was 6.449 and the Ratio ([10]; bait SCRIB_2 PDZ vs MBP control) was 87.3698.
Compound SEKHFRETEV [HTLV1 Tax1] has a Kd [11] of 0.912 µM.
SRPHTNETSL [MCC] gave a Kd [3, 13] of 5.5 µM, a Kd [4, 14] of 191 µM and a Kd [5, 15] of 64.6 µM. It also gave a Kd [6, 16] of 52.5 µM, a Kd [7] of 1.91 µM and a Kd [8, 17] of 75.9 µM.
TVASEKESVM [SLC1A5] gave a Kd [3, 13] of 6.31 µM, a Kd [7] of 5.13 µM and a Kd [8, 17] of 204 µM.
VKPQVSESKL [ACOT8] showed a Kd [3, 13] of 47.9 µM, a Kd [6, 16] of 302 µM and a Kd [7] of 4.57 µM.

— paper PMC9482650, “Quantitative fragmentomics allow affinity mapping of interactomes” (Nature Communications, 2022)
